Experimental data as given in patent publication US20190008154A1 (priority 2015, published 2019).
Several values for one entry are separate records, joined by “and”; a condition that tells them apart may be missing. Equal entries are not always repeated.

System: P[…] (PYRIOR)
Design: species or system Pyricularia oryzae
Conditions: in vivo

With Cc1cccc2sc3nncn3c12 [TCA, 5-methyl-1,2,4-triazolo[3,4-b][1,3]benzothiazole] the “PYRIOR (% DC) Observed” value was 100% and 95% and 50.2%.
